In publication PMC6028453, “BrlR from Pseudomonas aeruginosa is a receptor for both cyclic di-GMP and pyocyanin” (Nature Communications, 2018):

Columns and labels:
BrlR [1] = target: T1, BrlR (Pseudomonas aeruginosa, UniProt Q9HUT5); assay: Surface plasmon resonance (SPR) analysis; format: binding; settings: SPR, immobilized BrlR; for Kd: steady state, 25 °C
T1 construct: His6-SUMO (N, cleaved yes); made in house; host or cells: E. coli BL21 DE3
Experimental: The binding affinity of diverse toxic compounds for BrlR were investigated by SPR using a BIAcore-T200 apparatus (GE Healthcare). The ligand, BrlR (20 μM in 10 mM sodium acetate, pH 4.5), was immobilized on an activated CM5 sensor chip by amine coupling (BIAcore) with 4400 response units (RU), and the unreacted sites were blocked with 1.0 M ethanolamine–HCl (pH 8.5). Steady-state binding analysis was performed with injections of different molecules at different concentrations over the immobilized BrlR surface at a flow rate of 20 μL min^−1 at 25 °C. Association was measured for 180 s, followed by 120 s of dissociation in running buffer (20 mM Hepes pH 7.5, 150 mM NaCl). The sensorgrams for specific interactions were obtained by subtracting the reference unimmobilized flow cell response from that of the sample. Since BrlR only has one binding site for pyocyanin or other toxic compounds (Fig. 5a–f), the kinetic analysis of the sensorgrams from analyte interaction with the immobilized BrlR was performed by fitting the binding curves to a 1:1 binding model. To determine the steady state KD values, equilibrium responses were plotted against analyte concentrations, and the resulting curves were fitted to the steady state model in the BIAevaluation software package, version 3.0 (GE Healthcare).

BrlR-DNA binding (PbrlR) = target: T2, BrlR-DNA binding (PbrlR) (Pseudomonas aeruginosa, UniProt Q9HUT5); assay: EMSA, wild-type BrlR with PbrlR DNA; format: biochemical; settings: wild-type BrlR, increasing concentrations of compound
T2 construct: His6-SUMO (N, cleaved yes); made in house; host or cells: E. coli BL21 DE3
Experimental: A 6-carboxy-fluorescein (FAM)-labeled 36-bp brlR promoter DNA (PbrlR) or 80-bp mexA/mexE promoter DNA (PmexA/PmexE) probes (~0.375 pmol), BrlR protein and varying amounts of inducers were incubated in binding buffer (10 mM Tris HCl [pH 7.4], 50 mM KCl, 1 mM DTT, […] and 5 ng/mL poly [dI-dC]) for 60 min at 25 °C. Finally, glycerol was added to a concentration of 6.5%. The samples were subjected to a 5% polyacrylamide gel electrophoresis and run in 0.5 × Tris-borate-EDTA buffer at 80 V for 1 h at room temperature. Imaging and data analyses were performed using a Typhoon Scanner (GE Healthcare) and Imagequant software. The probes used are listed in Supplementary Table 1.

brlR transcription = assay: qRT-PCR of brlR transcript; format: cell-based, P. aeruginosa PAO1; settings: ΔphzMSH strain still produces PCA; strain PAO1
Experimental: PAO1 WT strains were grown under different conditions. For c-di-GMP effects, overexpression of PA4843 in PAO1 (PAO1/pHERD20T-PA4843) relative to WT cells (PAO1/ pHERD20T) was determined. When P. aeruginosa strains entered mid-log phase, arabinose was added to induce gene expression. To test pyocyanin’s effect, a P. aeruginosa PAO1 WT strain cells with high pyocyanin production was determined relative to a ΔphzA1-G1/phzA2-G2 strain not producing phenazine and a ΔphzMSH strain not producing pyocyanin.
Total RNA was extracted using a MiniBEST Universal RNA Extraction Kit (TaKaRa) and cDNA synthesis was performed using a PrimeScript RT reagent Kit (TaKaRa). Primers for RT-PCR listed in Supplementary Table 1 were designed using the program PrimerExpress (Applied Biosystems). The RT-PCR reactions were performed on a CFX96 Real-Time PCR Detection System (Bio-Rad) using SYBR Premix Ex Taq™ (TaKaRa). Expression of the target genes was normalized to the expression of 16 S RNA. The relative transcript abundance was calculated according to the 2^−ΔΔCt method. Five biological replicates were performed per sample. The data were analyzed with a one-tailed t-test (***P ≤ 0.001).

BrlR-C = target: T3, BrlR-C (Pseudomonas aeruginosa, UniProt Q9HUT5); assay: FP competition experiment, BrlR-C; format: binding; settings: 550 μM BrlR-C, 1 nM F-c-di-GMP
T3 construct: His6 (cleaved yes); made in house; host or cells: E. coli (same protocol as BrlR, induction at 18 °C)
Experimental: Supplementary Figure 11: FP analyses of F-c-di-GMP binding to BrlR-C. (a) Isotherms of BrlR-C binding to F-c-di-GMP. The binding experiment was carried out at 25 °C in a buffer containing 150 mM NaCl, 25 mM Tris·HCl (pH 7.5), and 1 nM F-c-di-GMP. Increasing concentrations of BrlR-C were titrated into the reaction mixture to obtain the binding isotherms. (b) Fluorescence polarization competition experiment of BrlR-C. As a control, 550 μM BrlR-C was added to the reaction tube containing 1 nM F-c-di-GMP, and different competitors were respectively added in the solution and the values of millipolarization were recorded.
(1 picture or pasted object on this page, not shown here)

P. aeruginosa PAO1 = assay: Planktonic antibiotic susceptibility testing, PAO1; format: cell-based, Pseudomonas aeruginosa; settings: for decrease of CFU number (log reduction): PAO1, 50 μg/ml tobramycin 1 h; for reduction in CFU number: cells harboring pHERD20T-PA2133 (low c-di-GMP), 50 μg/ml tobramycin 1 h
Experimental: To determine the role of pyocyanin in antimicrobial susceptibility, P. aeruginosa strains (Supplementary Table 2) were grown at 37 °C in 20-fold diluted LB medium supplemented with or without 0.2 mM pyocyanin, which was purified from stationary phase cultures of PAO1. Tobramycin was added to the mid-log phase (OD600 = 0.8) cells suspension to a final concentration of 50 μg/ml; after 1 h, the broth was serially diluted and spread-printed onto LB agar (medium containing 300 μg/ml carbenicillin was used for the cells harboring plasmid) to determine the cell viability via CFU counts. The cell suspensions without tobramycin were set as controls. Susceptibility is expressed as a logarithmic reduction in CFU amount. The data were analyzed with a one-tailed t-test (***P ≤ 0.001).

BrlR [2] = target: T1, BrlR; assay: Fluorescence polarization (FP) binding assay, wild-type BrlR; settings: 1 nM fluorescent ligand, 25 °C
Description: The most striking feature of the BrlR–c-di-GMP complex is the c-di-GMP-binding mode. The DNA-binding domain contains two separate c-di-GMP-binding sites, and shares a mutually intercalated c-di-GMP dimer in a stacking conformation with a crystallographic symmetry related binding site (Fig. 2a–c). […] The interactions stabilizing the c-di-GMPs are different for the two binding sites (Fig. 2d, e, and details are described in Supplementary Note 1). […] This structural feature allows us to perform fluorescence polarization (FP)-based binding assays[19],[23],[24] by using a fluoresceinated c-di-GMP analog, 2′-Fluo-AHC-c-di-GMP (F-c-di-GMP), containing a fluorophore attached to one of the 2′-ribose hydroxyls (Fig. 2f).
F-c-di-GMP and F-c-di-AMP both contain a fluorophore at one of the 2′-ribose hydroxyls of c-di-GMP and c-di-AMP, respectively (Fig. 2f). To measure the binding of c-di-GMP and c-di-AMP to BrlR variants, 1 nM F-c-di-GMP or F-c-di-AMP was incubated with increasing amounts of indicated BrlR WT, BrlR mutation, or BrlR-C in reaction buffer (25 mM HEPES, 100 mM NaCl, pH 7.5) at 25 °C for 20 min. 1 nM fluorescein was incubated with BrlR WT in the same reaction buffer at 25 °C. FP measurements were conducted on a Synergy 4 Microplate Reader (BioTek) at 25 °C. All experiments were performed in triplicate. The curves were fitted to deduce binding affinities by GraphPad Prism 5.

BrlR [3] = target: T4, BrlR (UniProt Q9HUT5 1-270); assay: EMSA; pyocyanin (enhances); settings: protein: recombinant; tags: none (His6-SUMO removed); chain copies: 4; label: 5' FAM on strand 1; blunt
T4 sequence: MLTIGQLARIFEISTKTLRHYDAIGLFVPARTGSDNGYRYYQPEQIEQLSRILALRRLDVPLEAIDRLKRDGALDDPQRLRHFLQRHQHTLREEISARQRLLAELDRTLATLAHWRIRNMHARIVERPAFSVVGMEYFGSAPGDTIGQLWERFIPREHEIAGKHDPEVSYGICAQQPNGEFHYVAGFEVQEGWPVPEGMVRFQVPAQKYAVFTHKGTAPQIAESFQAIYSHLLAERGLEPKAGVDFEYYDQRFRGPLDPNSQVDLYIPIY

[4] = target: the molecule itself; assay: crystal structure; apo-BrlR, 3.1 Å, space group P65, four BrlR molecules in the asymmetric unit; crystals from 1.8 M sodium acetate pH 7.0, 0.1 M Bis-Tris propane pH 7.0, 20 °C

In the case of Nc1ncnc2c1ncn2[C@@H]1O[C@H](COP(=O)(O)O)[C@@H](O)[C@H]1O [AMP], the “binding to BrlR in SPR (in words)” value (BrlR [1]) is reported as “does not bind”.

In the case of CCn1cc(C(=O)O)c(=O)c2cc(F)c(N3CCNCC3)cc21 [norfloxacin], the “binding to BrlR in SPR (in words)” value (BrlR [1]) is reported as “signals were not sufficiently high”.

For Nc1ncnc2c1ncn2[C@@H]1O[C@@H]2COP(=O)(O)O[C@H]3[C@@H](O)[C@H](n4cnc5c(N)ncnc54)O[C@@H]3COP(=O)(O)O[C@H]2[C@H]1O [c-di-AMP], the “effect on BrlR-PbrlR DNA binding (in words)” value (BrlR-DNA binding (PbrlR)) was “significantly promoted”.

For CN(C)[C@@H]1C(O)=C(C(N)=O)C(=O)[C@@]2(O)C(O)=C3C(=O)c4c(O)cccc4[C@@](C)(O)[C@H]3C[C@@H]12 [tetracycline], the “binding to BrlR in SPR (in words)” value (BrlR [1]) was “signals were not sufficiently high”.

For CNC(C)C1CCC(N)C(OC2C(N)CC(N)C(OC3OCC(C)(O)C(NC)C3O)C2O)O1 (centres unmarked) [Gentamicin], the Kd (BrlR [1]) was roughly 470 µM.

In the case of O=C(O)c1cccc2nc3ccccc3nc12 [PCA, phenazine-1-carboxylic acid], the “effect on brlR transcription” value (brlR transcription) is reported as “could not up-regulate”.

With NC[C@H]1O[C@H](O[C@H]2[C@H](O)[C@@H](O[C@H]3O[C@H](CO)[C@@H](O)[C@H](N)[C@H]3O)[C@H](N)C[C@@H]2N)[C@H](N)C[C@@H]1O [tobramycin] the “competition with F-c-di-GMP binding to BrlR-C” value (BrlR-C) was “outcompeted”, the Kd (BrlR [1]) was 640 µM and the “effect on BrlR-PbrlR DNA binding (in words)” value (BrlR-DNA binding (PbrlR)) was “did not result in an observable difference”. The “decrease of CFU number (log reduction)” value (P. aeruginosa PAO1; absence of pyocyanin) was ~ 3.4 order of magnitude, the “decrease of CFU number (log reduction)” value (P. aeruginosa PAO1; presence of 0.2 mM pyocyanin) was ~ 1.5 order of magnitude and the “reduction in CFU number” value (P. aeruginosa PAO1; with addition of pyocyanin) was 1.7 order of magnitude. The “reduction in CFU number” value (P. aeruginosa PAO1; without pyocyanin) was 4.3 order of magnitude.

In the case of O=C1OC2(c3ccc(O)cc3Oc3cc(O)ccc32)c2ccccc21 [fluorescein], the Kd (BrlR [2]) is reported as 33.6 ± 1.6 µM.

B1: PmexA (dsDNA)
DNA 1: ACACCTATGAATGTAAGTATTTTGCCTGCCTTCTTCGAGCCGGTGCAGCGCCTTCACGCTGCATCGGCCGCTTTCGCT
DNA 2: AGCGAAAGCGGCCGATGCAGCGTGAAGGCGCTGCACCGGCTCGAAGAAGGCAGGCAAAATACTTACATTCATAGGTGT
B1: binds (BrlR [3]).

B2: BrlR (PA4878) (natural protein)
chain: T4 sequence
notes: also called apo-BrlR; BrlR WT; source: E. coli BL21 DE3, purified (Ni-NTA, tag cleaved by UlpI, Source Q, Superdex 200); not shown: His6-SUMO, N-terminal, cleaved
For B2, the “stoichiometry N” value [4] was 4.

B3: PmexE (dsDNA)
DNA 1: AATCTCGTCGTTCGATTAGTTCCCTGCCGGAGCAGCCCGCAGACTTCGCCAATCCCGAAAAACCGACTGGCGGAGT
DNA 2: ACTCCGCCAGTCGGTTTTTCGGGATTGGCGAAGTCTGCGGGCTGCTCCGGCAGGGAACTAATCGAACGACGAGATT
B3: binds (BrlR [3]).
